Data published in patent US8962844B2, “1,3,4-oxadiazole and 1,3,4-thiadiazole β-lactamase inhibitors” (priority 2012, dated 2015).
Counter-ions that a name gives are not always drawn.

The molecules below were run on bacterial strains that express the class D cephalosporinase OXA-15 (assay: Standard BLI potentiation MIC / synergy MIC (sMIC) assays run in the presence of a β-lactam, OXA-15 expressing strains). Conditions: BLI in combination with a β-lactam; comparison with Avibactam (comparator compound CCC).
Format: cell-based, E. coli
Excerpt: Unless otherwise indicated, the activity of the BLI compounds can be described by the MIC value obtained from a Synergy MIC assay or a BLI potentiation assay (e.g as described herein), both of which are run in the presence of a β-lactam.
A set of β-lactamase expressing isogenic E. coli strains was constructed by cloning a β-lactamase gene into a customized derivative of pBR322 (GenBank Accession Number J01749) and transforming the engineered plasmids into E. coli. The NdeI restriction site within the plasmid backbone of pBR322 was removed to generate pBR322 ΔNdeI. The pBR322 ΔNdeI vector itself, minus the blaTEM-1 gene, was amplified using two primers: (1) pBR-Pbla 5′-cgcatatgactettectttttcaatattattg-3, SEQ ID 1, a primer with an engineered NdeI restriction site at the 3′ end of the blaTEM-1 promoter and (2) pBR-vec-1 5′-[…]-3′, SEQ ID 2, a primer with an engineered BamHI restriction site at the 3′ end of the blaTEM-1 open reading frame. The chloramphenicol resistance gene, cat, was generated by PCR amplification from pKD3 (GenBank Accession Number AY048742) using primers with an engineered NdeI restriction site at the 5′ end (Pbla-cat 5′-[…]-3′, SEQ ID 3) and an engineered BamHI restriction site at the 3′ end (Vec-1-cat 5′-[…]-3′, SEQ ID 4) of the resistance gene. The two PCR products, pBR322 ΔNdeI and cat were ligated together generating pBR-CBST (pBR322 ΔNdeI ΔTEM-1::cat Seq. ID 5) which retains both the pBR322 tetracycline resistance cassette, tetA, and the plasmid origin of replication but the blaTEM-1 gene was replaced by the cat gene.
Using this engineering strategy a number of plasmids producing β-lactamase genes from different classes (see below) were generated using synthetic genes with an engineered NdeI restriction site at the 5′ end and BamHI restriction site at the 3′ end of each gene (GenScript). Both the synthetic β-lactamase genes and cat gene were ligated into the NdeI/BamHI sites of the pBR322 ΔNdeI PCR product and transformed into electrocompetent E. coli ElectroMax DH10B (Invitrogen/Life Technologies). E. coli DH10B harboring the recombinant plasmids were selected on LB agar (supplemented with 25 μg/mL tetracycline) and single isolated colonies were then inoculated into 5 mL LB media (supplemented with 25 μg/mL tetracycline), and incubated at 37° C. with aeration (250 rpm) for 18 hrs. The cultures were frozen back at −80° C. in 20% glycerol. The DNA sequence of the cloned β-lactamase genes was confirmed. The β-lactamase gene expression in the recombinant E. coli strains was driven by the blaTEM-1 promoter in the pBR-CBST plasmid and was characterized by MIC profiling of the E. coli recombinant strains against comparator β-lactam/BLI combinations in broth microdilution assay.
The experimental protocol was performed according to Clinical and Laboratory Standards Institute (CLSI) guidelines with modifications as described below (CLSI guidelines can be derived from the CLSI document M07-A9 published in January 2012: “Methods for Dilution Antimicrobial Susceptibility Tests for Bacteria That Grow Aerobically; Approved Standard-Ninth Edition”).
To prepare for MIC testing, frozen glycerol stocks of clinical isolates (Klebsiella pneumoniae, Eschericia coli, Enterobacter spp, Citrobacter spp, or Pseudomonas aeruginosa) were used to streak for isolated colonies on rich, non-selective, tryptic soy agar containing 5% sheep's blood (TSAB). Frozen glycerol stocks of laboratory engineered, isogenic E. coli strains, which contain cloned β-lactamase expressing plasmids were used to streak for isolated colonies on rich, selective LB agar supplemented with 25 μg/mL tetracycline to maintain the plasmid. All strains were incubated at 37° C. for 18-24 hrs.
On the day of testing, primary cultures were started by scraping off 5-10 colonies from the TSAB plates containing clinical strains or the tetracycline supplemented LB plates containing engineered strains. […]

SMILES | activity against bacterial strains that express the class D cephalosporinase OXA-15, compared with Avibactam
NCC(O)c1nnc([C@@H]2CC[C@@H]3CN2C(=O)N3OS(=O)(=O)O)o1 (stereo partly drawn) [Compound 715, (2S,5R)-2-(5-(2-amino-1-hydroxyethyl)-1,3,4-oxadiazol-2-yl)-7-oxo-1,6-diazabicyclo[3.2.1]octan-6-yl hydrogen sulfate] | more active than Avibactam
O=C1N2C[C@@H](CC[C@H]2c2nnc(CC3CNC3)o2)N1OS(=O)(=O)O [Compound 725, (2S,5R)-2-(5-(azetidin-3-ylmethyl)-1,3,4-oxadiazol-2-yl)-7-oxo-1,6-diazabicyclo[3.2.1]octan-6-yl hydrogen sulfate] | more active than Avibactam
N[C@H]1C[C@H](NCc2nnc([C@@H]3CC[C@@H]4CN3C(=O)N4OS(=O)(=O)O)o2)C1 [Compound 757, (2S,5R)-2-(5-((((1r,3S)-3-aminocyclobutyl)amino)methyl)-1,3,4-oxadiazol-2-yl)-7-oxo-1,6-diazabicyclo[3.2.1]octan-6-yl hydrogen sulfate] | more active than Avibactam
O=C1N2C[C@@H](CC[C@H]2c2nnc(C3CCNCC3)s2)N1OS(=O)(=O)O [Compound 719, (2S,5R)-7-oxo-2-(5-(piperidin-4-yl)-1,3,4-thiadiazol-2-yl)-1,6-diazabicyclo[3.2.1]octan-6-yl hydrogen sulfate] | more active than Avibactam
NCC(O)Cc1nnc([C@@H]2CC[C@@H]3CN2C(=O)N3OS(=O)(=O)O)o1 (stereo partly drawn) [Compound 733, (2S,5R)-2-(5-(3-amino-2-hydroxypropyl)-1,3,4-oxadiazol-2-yl)-7-oxo-1,6-diazabicyclo[3.2.1]octan-6-yl hydrogen sulfate] | more active than Avibactam
O=C1N2C[C@@H](CC[C@H]2c2nnc(N3CCNCC3)s2)N1OS(=O)(=O)O [Compound 797, (2S,5R)-7-oxo-2-(5-(piperazin-1-yl)-1,3,4-thiadiazol-2-yl)-1,6-diazabicyclo[3.2.1]octan-6-yl hydrogen sulfate] | more active than Avibactam
O=C1N2C[C@@H](CC[C@H]2c2nnc(CCCN3CCNCC3)o2)N1OS(=O)(=O)O [Compound 792, (2S,5R)-7-oxo-2-(5-(3-(piperazin-1-yl)propyl)-1,3,4-oxadiazol-2-yl)-1,6-diazabicyclo[3.2.1]octan-6-yl hydrogen sulfate] | more active than Avibactam
Nc1nnc([C@@H]2CC[C@@H]3CN2C(=O)N3OS(=O)(=O)O)o1 [Compound 707, (2S,5R)-2-(5-amino-1,3,4-oxadiazol-2-yl)-7-oxo-1,6-diazabicyclo[3.2.1]octan-6-yl hydrogen sulfate] | more active than Avibactam
O=C1N2C[C@@H](CC[C@H]2c2nnc(N3CCNCC3)o2)N1OS(=O)(=O)O [Compound 713, (2S,5R)-7-oxo-2-(5-(piperazin-1-yl)-1,3,4-oxadiazol-2-yl)-1,6-diazabicyclo[3.2.1]octan-6-yl hydrogen sulfate] | more active than Avibactam
N=C(N)NCc1nnc([C@@H]2CC[C@@H]3CN2C(=O)N3OS(=O)(=O)O)o1 [Compound 704, (2S,5R)-2-(5-(guanidinomethyl)-1,3,4-oxadiazol-2-yl)-7-oxo-1,6-diazabicyclo[3.2.1]octan-6-yl hydrogen sulfate] | more active than Avibactam
NCC(N)c1nnc([C@@H]2CC[C@@H]3CN2C(=O)N3OS(=O)(=O)O)o1 (stereo partly drawn) [Compound 717, (2S,5R)-2-(5-(1,2-diaminoethyl)-1,3,4-oxadiazol-2-yl)-7-oxo-1,6-diazabicyclo[3.2.1]octan-6-yl hydrogen sulfate] | more active than Avibactam
NC1CCN(c2nnc([C@@H]3CC[C@@H]4CN3C(=O)N4OS(=O)(=O)O)o2)CC1 [Compound 773, (2S,5R)-2-(5-(4-aminopiperidin-1-yl)-1,3,4-oxadiazol-2-yl)-7-oxo-1,6-diazabicyclo[3.2.1]octan-6-yl hydrogen sulfate] | more active than Avibactam
NCCNCCc1nnc([C@@H]2CC[C@@H]3CN2C(=O)N3OS(=O)(=O)O)o1 [Compound 716, (2S,5R)-2-(5-(2-((2-aminoethyl)amino)ethyl)-1,3,4-oxadiazol-2-yl)-7-oxo-1,6-diazabicyclo[3.2.1]octan-6-yl hydrogen sulfate] | more active than Avibactam
N=C(N)NCCCc1nnc([C@@H]2CC[C@@H]3CN2C(=O)N3OS(=O)(=O)O)o1 [Compound 714, (2S,5R)-2-(5-(3-guanidinopropyl)-1,3,4-oxadiazol-2-yl)-7-oxo-1,6-diazabicyclo[3.2.1]octan-6-yl hydrogen sulfate] | more active than Avibactam
N=C(N)N[C@H]1C[C@H](c2nnc([C@@H]3CC[C@@H]4CN3C(=O)N4OS(=O)(=O)O)o2)C1 [Compound 748, (2S,5R)-2-(5-((1r,3S)-3-guanidinocyclobutyl)-1,3,4-oxadiazol-2-yl)-7-oxo-1,6-diazabicyclo[3.2.1]octan-6-yl hydrogen sulfate] | more active than Avibactam
O=C1N2C[C@@H](CC[C@H]2c2nnc([C@@H]3CNCCN3)o2)N1OS(=O)(=O)O [Compound 778, (2S,5R)-7-oxo-2-(5-((S)-piperazin-2-yl)-1,3,4-oxadiazol-2-yl)-1,6-diazabicyclo[3.2.1]octan-6-yl hydrogen sulfate] | more active than Avibactam
O=C1N2C[C@@H](CC[C@H]2c2nnc(CNC3CCNCC3)o2)N1OS(=O)(=O)O [Compound 769, (2S,5R)-7-oxo-2-(5-((piperidin-4-ylamino)methyl)-1,3,4-oxadiazol-2-yl)-1,6-diazabicyclo[3.2.1]octan-6-yl hydrogen sulfate] | more active than Avibactam
N=C(N)N1CCC(c2nnc([C@@H]3CC[C@@H]4CN3C(=O)N4OS(=O)(=O)O)o2)CC1 [Compound 712, (2S,5R)-2-(5-(1-carbamimidoylpiperidin-4-yl)-1,3,4-oxadiazol-2-yl)-7-oxo-1,6-diazabicyclo[3.2.1]octan-6-yl hydrogen sulfate] | more active than Avibactam
N[C@H]1CC[C@@H](c2nnc([C@@H]3CC[C@@H]4CN3C(=O)N4OS(=O)(=O)O)o2)CC1 [Compound 780, (2S,5R)-2-(5-((1s,4R)-4-aminocyclohexyl)-1,3,4-oxadiazol-2-yl)-7-oxo-1,6-diazabicyclo[3.2.1]octan-6-yl hydrogen sulfate] | more active than Avibactam
N[C@H]1CC[C@H](c2nnc([C@@H]3CC[C@@H]4CN3C(=O)N4OS(=O)(=O)O)o2)CC1 [Compound 781, (2S,5R)-2-(5-((1r,4S)-4-aminocyclohexyl)-1,3,4-oxadiazol-2-yl)-7-oxo-1,6-diazabicyclo[3.2.1]octan-6-yl hydrogen sulfate] | more active than Avibactam
